# Reference: publication PMC8963331 (Toxicological Sciences, 2022)
# Tests used:
# [1] = Rat repeat-dose toxicity studies: plasma toxicokinetics; assay type: in vivo; details: for AUC(0-t): Mean AUC0–24, rat male
# [2] = Dog repeat-dose toxicity studies: plasma toxicokinetics; assay type: in vivo
# [3] = Human plasma protein binding; assay type: in vitro ADME
smiles,measurement,setting,value
"Cc1cc(Nc2cc3ncccc3c(N[C@@H]3C[C@H]4CC[C@@H](C3)N4CCC#N)n2)n[nH]1 [izencitinib, Izencitinib]",AUC(0-t),"[1]; male, Sprague-Dawley (Crl:CD), rat, plasma, po, 1000 mg/kg/day, 1000 mg/kg/day oral, 26 weeks, last day of dosing",384 ng·h/mL
same,Cmax,"[1]; male, Sprague-Dawley (Crl:CD), rat, plasma, po, 1000 mg/kg/day, Mean Cmax, rat male, 1000 mg/kg/day oral, 26 weeks, last day of dosing",60.6 ng/mL
same,AUC(0-t),"[1]; male, Sprague-Dawley, rat, plasma, po, 30 mg/kg/day, 30 mg/kg/day oral, 4 weeks, last day of dosing",23.4 ng·h/mL
same,AUC(0-t),"[1]; male, Sprague-Dawley, rat, plasma, po, 30 mg/kg/day, 30 mg/kg/day oral, 13 weeks, last day of dosing",58.2 ng·h/mL
same,AUC(0-t),"[1]; male, Sprague-Dawley, rat, plasma, po, 100 mg/kg/day, 100 mg/kg/day oral, 4 weeks, last day of dosing",71.3 ng·h/mL
same,AUC(0-t),"[1]; male, Sprague-Dawley, rat, plasma, po, 100 mg/kg/day, 100 mg/kg/day oral, 13 weeks, last day of dosing",131 ng·h/mL
same,AUC(0-t),"[1]; male, Sprague-Dawley, rat, plasma, po, 1000 mg/kg/day, 1000 mg/kg/day oral, 4 weeks, last day of dosing",335 ng·h/mL
same,AUC(0-t),"[1]; male, Sprague-Dawley, rat, plasma, po, 1000 mg/kg/day, 1000 mg/kg/day oral, 13 weeks, last day of dosing",452 ng·h/mL
same,nonclinical:clinical systemic AUC margin at the NOAEL,"[1]; rat 26-week study, 1000 mg/kg/day, vs human 300 mg QD",8 fold
same,Mean Cave,"[1]; rat female, 30 mg/kg/day oral, 4 weeks, last day of dosing",1.07 ng/mL
same,Mean Cave,"[1]; rat female, 30 mg/kg/day oral, 13 weeks, last day of dosing",2.28 ng/mL
same,Mean Cave,"[1]; rat female, 30 mg/kg/day oral, 26 weeks, last day of dosing",0.700 ng/mL
same,Mean Cave,"[1]; rat female, 100 mg/kg/day oral, 4 weeks, last day of dosing",2.94 ng/mL
same,Mean Cave,"[1]; rat female, 100 mg/kg/day oral, 13 weeks, last day of dosing",9.46 ng/mL
same,Mean Cave,"[1]; rat female, 100 mg/kg/day oral, 26 weeks, last day of dosing",5.29 ng/mL
same,Mean Cave,"[1]; rat female, 1000 mg/kg/day oral, 4 weeks, last day of dosing",16.0 ng/mL
same,Mean Cave,"[1]; rat female, 1000 mg/kg/day oral, 13 weeks, last day of dosing",63.8 ng/mL
same,Mean Cave,"[1]; rat female, 1000 mg/kg/day oral, 26 weeks, last day of dosing",18.9 ng/mL
same,Mean Cave,"[1]; rat male, 30 mg/kg/day oral, 4 weeks, last day of dosing",0.975 ng/mL
same,Mean Cave,"[1]; rat male, 30 mg/kg/day oral, 13 weeks, last day of dosing",2.43 ng/mL
same,Mean Cave,"[1]; rat male, 30 mg/kg/day oral, 26 weeks, last day of dosing",1.44 ng/mL
same,Mean Cave,"[1]; rat male, 100 mg/kg/day oral, 4 weeks, last day of dosing",2.97 ng/mL
same,Mean Cave,"[1]; rat male, 100 mg/kg/day oral, 13 weeks, last day of dosing",5.46 ng/mL
same,Mean Cave,"[1]; rat male, 100 mg/kg/day oral, 26 weeks, last day of dosing",3.99 ng/mL
same,Mean Cave,"[1]; rat male, 1000 mg/kg/day oral, 4 weeks, last day of dosing",14.0 ng/mL
same,Mean Cave,"[1]; rat male, 1000 mg/kg/day oral, 13 weeks, last day of dosing",18.8 ng/mL
same,Mean Cave,"[1]; rat male, 1000 mg/kg/day oral, 26 weeks, last day of dosing",16.0 ng/mL
same,plasma Cave:protein-corrected JAK IC50 ratio,"[1]; rat, 30 mg/kg/day",< 1 ×
same,plasma Cave:uncorrected JAK IC50 ratio,"[1]; rat, 30 mg/kg/day",< 1 ×
same,plasma concentrations versus uncorrected human JAK IC50 threshold,"[1]; rat, 100 mg/kg/day",only briefly rose above
same,plasma Cave:protein-corrected JAK IC50 ratio,"[1]; rat, 1000 mg/kg/day",< 1
same,plasma Cave:uncorrected JAK IC50 ratio,"[1]; rat, 1000 mg/kg/day",1–3 ×
same,nonclinical:clinical systemic AUC margin at the NOAEL,"[2]; dog 39-week study, 30 mg/kg/day, vs human 300 mg QD",8 fold
same,Mean Cave,"[2]; dog female, 10 mg/kg/day oral, 4 weeks, last day of dosing",1.90 ng/mL
same,Mean Cave,"[2]; dog female, 10 mg/kg/day oral, 13 weeks, last day of dosing",1.53 ng/mL
same,Mean Cave,"[2]; dog female, 10 mg/kg/day oral, 39 weeks, last day of dosing",3.11 ng/mL
same,Mean Cave,"[2]; dog female, 30 mg/kg/day oral, 4 weeks, last day of dosing",14.8 ng/mL
same,Mean Cave,"[2]; dog female, 30 mg/kg/day oral, 13 weeks, last day of dosing",10.8 ng/mL
same,Mean Cave,"[2]; dog female, 30 mg/kg/day oral, 39 weeks, last day of dosing",20.5 ng/mL
same,Mean Cave,"[2]; dog female, 100 mg/kg/day oral, 13 weeks, last day of dosing",96.7 ng/mL
same,Mean Cave,"[2]; dog female, 100 mg/kg/day oral, 39-week study, week 28 (day 197)",131 ng/mL
same,Mean Cave,"[2]; dog male, 10 mg/kg/day oral, 4 weeks, last day of dosing",2.30 ng/mL
same,Mean Cave,"[2]; dog male, 10 mg/kg/day oral, 13 weeks, last day of dosing",1.61 ng/mL
same,Mean Cave,"[2]; dog male, 10 mg/kg/day oral, 39 weeks, last day of dosing",2.08 ng/mL
same,Mean Cave,"[2]; dog male, 30 mg/kg/day oral, 4 weeks, last day of dosing",19.1 ng/mL
same,Mean Cave,"[2]; dog male, 30 mg/kg/day oral, 13 weeks, last day of dosing",12.5 ng/mL
same,Mean Cave,"[2]; dog male, 30 mg/kg/day oral, 39 weeks, last day of dosing",15.9 ng/mL
same,Mean Cave,"[2]; dog male, 100 mg/kg/day oral, 13 weeks, last day of dosing",190 ng/mL
same,Mean Cave,"[2]; dog male, 100 mg/kg/day oral, 39-week study, week 28 (day 197)",69.6 ng/mL
same,plasma Cave:protein-corrected JAK IC50 ratio,"[2]; dog, 10 mg/kg/day",< 1 ×
same,plasma Cave:uncorrected JAK IC50 ratio,"[2]; dog, 10 mg/kg/day",< 1 ×
same,plasma Cave:protein-corrected JAK IC50 ratio,"[2]; dog, 30 mg/kg/day",< 1 ×
same,plasma Cave:uncorrected JAK IC50 ratio,"[2]; dog, 30 mg/kg/day",1 ×
same,time within the therapeutic range,"[2]; dog, 30 mg/kg/day",6 to 9 h
same,plasma Cave:protein-corrected JAK IC50 ratio,"[2]; dog, 100 mg/kg/day",1–2 ×
same,plasma Cave:uncorrected JAK IC50 ratio,"[2]; dog, 100 mg/kg/day",7–11 ×
same,time at supratherapeutic plasma concentrations,"[2]; dog, 100 mg/kg/day, all studies",up to 24 h
same,plasma Cave:uncorrected JAK IC50 ratio,"[2]; dog, ≥100 mg/kg/day",≥ 7 ×
same,fraction unbound,[3],0.146
